Laboratory results as given in PubChem BioAssay AID330 (DTP/NCI, 2004).
Values joined by “and” are separate entries in the source; they are usually repeats but may differ in a detail not shown here. Equal values may be shown once. Inconclusive results and toxic doses are left out. How the source made its calls: active means survival T/C of 150% or more; inactive means T/C below 125% in these data.

Test system: P388 leukemia ip, CD2F1 mice, survival T/C
Experiment: NCI In Vivo Anticancer Drug Screen. Data for tumor model P388 Leukemia (intraperitoneal) in CD2F1 (CDF1) mice
Settings: endpoint: median survival time, higher = longer survival
Outline: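 Mice carrying the transplanted tumor received test compound or vehicle. Survival was recorded in each group, and the value is the treated-group measurement divided by that of the vehicle-treated control group.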

[1] = dose: 60.0 mg/kg/injection, schedule: Q01DX005 (ip), vehicle: saline with Tween-80
[2] = dose: 50.0 mg/kg/injection, schedule: Q01DX005 (ip), vehicle: Klucel (hydroxypropylcellulose) (HPC)
[3] = dose: 100.0 mg/kg/injection, schedule: Q01DX005 (ip), vehicle: Klucel (hydroxypropylcellulose) (HPC)
[4] = dose: 200.0 mg/kg/injection, schedule: Q01DX005 (ip), vehicle: Klucel (hydroxypropylcellulose) (HPC)
[5] = dose: 60.0 mg/kg/injection, schedule: Q01DX005 (ip), vehicle: saline
[6] = dose: 120.0 mg/kg/injection, schedule: Q01DX005 (ip), vehicle: saline
[7] = dose: 240.0 mg/kg/injection, schedule: Q01DX005 (ip), vehicle: saline
[8] = dose: 50.0 mg/kg/injection, schedule: Q04DX002 (ip), vehicle: saline with Tween-80
[9] = dose: 100.0 mg/kg/injection, schedule: Q04DX002 (ip), vehicle: saline with Tween-80
[10] = dose: 50.0 mg/kg/injection, schedule: Q01DX009 (ip), vehicle: saline
[11] = dose: 100.0 mg/kg/injection, schedule: Q01DX009 (ip), vehicle: saline
[12] = dose: 200.0 mg/kg/injection, schedule: Q01DX009 (ip), vehicle: saline

Measured: T/C

O=C(Nc1ccc(Cl)cc1)Nc1nnc(/C=C/c2ccc(Cl)c(Cl)c2)o1
inactive: [1] 95 % of control | dose: 120.0 mg/kg/injection, schedule: Q01DX005 (ip), vehicle: saline with Tween-80 91 % of control | dose: 240.0 mg/kg/injection, schedule: Q01DX005 (ip), vehicle: saline with Tween-80 101 % of control

N#CC(C#N)=C1c2ccccc2C(=O)c2ccccc21
inactive: [2] 88 % of control | [3] 88 % of control | [4] 92 % of control

O=C1NCCCCC1(Cl)Cl
inactive: dose: 12.5 mg/kg/injection, schedule: Q01DX005 (ip), vehicle: saline with Tween-80 99 % of control | dose: 25.0 mg/kg/injection, schedule: Q01DX005 (ip), vehicle: saline with Tween-80 101 % of control | dose: 50.0 mg/kg/injection, schedule: Q01DX005 (ip), vehicle: saline with Tween-80 99 % of control and 103 % of control

COCC1OCCCO1
inactive: [5] 102 % of control | [6] 98 % of control | [7] 97 % of control

CC(C)N=C(C1=C(O)c2ccccc2C1=O)c1ccccc1
inactive: dose: 25.0 mg/kg/injection, schedule: Q04DX002 (ip), vehicle: saline with Tween-80 100 % of control | [8] 104 % of control | [9] 100 % of control

Nc1cc(N)c(N=Nc2cccc3c(S(=O)(=O)O)cccc23)cc1N=Nc1cc([N+](=O)[O-])ccc1O
inactive: [10] 109 % of control | [11] 109 % of control | [12] 96 % of control

COCCCCCC(=O)OC
inactive: [5] 101 % of control | [6] 100 % of control | [7] 104 % of control

CCCCCCCC/C=C/CCCCCCCC(=O)N(C)CCOC(=O)C(C)(C)C
inactive: dose: 50.0 mg/kg/injection, schedule: Q01DX009 (ip), vehicle: Klucel (hydroxypropylcellulose) (HPC) 122 % of control and 95 % of control | dose: 100.0 mg/kg/injection, schedule: Q01DX009 (ip), vehicle: Klucel (hydroxypropylcellulose) (HPC) 106 % of control and 120 % of control | dose: 200.0 mg/kg/injection, schedule: Q01DX009 (ip), vehicle: Klucel (hydroxypropylcellulose) (HPC) 103 % of control and 114 % of control

Oc1ccccc1C1NCCc2[nH]cnc21 (stereo unspecified)
inactive: [2] 104 % of control | [3] 102 % of control | [4] 104 % of control

CCN(CC)C1C(Br)c2ccccc2C(OC)N1C#N (stereo unspecified)
inactive: dose: 50.0 mg/kg/injection, schedule: Q01DX005 (ip), vehicle: distilled water + Tween-80 + alcohol 103 % of control | dose: 100.0 mg/kg/injection, schedule: Q01DX005 (ip), vehicle: distilled water + Tween-80 + alcohol 107 % of control

O=C(O)C(=O)c1ccc(-c2ccccc2)cc1
inactive: dose: 50.0 mg/kg/injection, schedule: Q04DX003 (ip), vehicle: saline 104 % of control | dose: 100.0 mg/kg/injection, schedule: Q04DX003 (ip), vehicle: saline 100 % of control

Cc1cc(C)c2cc(=O)oc-2c(C)c1
inactive: dose: 100.0 mg/kg/injection, schedule: Q01DX001 (ip), vehicle: Klucel (hydroxypropylcellulose) (HPC) 100 % of control | dose: 200.0 mg/kg/injection, schedule: Q01DX001 (ip), vehicle: Klucel (hydroxypropylcellulose) (HPC) 103 % of control | dose: 400.0 mg/kg/injection, schedule: Q01DX001 (ip), vehicle: Klucel (hydroxypropylcellulose) (HPC) 100 % of control

CN(C)/C(N)=N\c1ncccn1
inactive: dose: 12.5 mg/kg/injection, schedule: Q01DX009 (ip), vehicle: saline 94 % of control | dose: 25.0 mg/kg/injection, schedule: Q01DX009 (ip), vehicle: saline 91 % of control | [10] 91 % of control | [11] 93 % of control | [12] 90 % of control

CCCN(CCC)CCN1C(=O)NC(C)(c2ccccc2)C1=O (stereo unspecified)
inactive: dose: 7.5 mg/kg/injection, schedule: Q01DX005 (ip), vehicle: saline with Tween-80 100 % of control | dose: 15.0 mg/kg/injection, schedule: Q01DX005 (ip), vehicle: saline with Tween-80 101 % of control and 97 % of control | dose: 30.0 mg/kg/injection, schedule: Q01DX005 (ip), vehicle: saline with Tween-80 99 % of control and 103 % of control | [1] 101 % of control and 94 % of control and 97 % of control

O=C(c1ccncc1)c1cc(Cl)c(Cl)cc1Cl
inactive: [8] 102 % of control | [9] 93 % of control | dose: 200.0 mg/kg/injection, schedule: Q04DX002 (ip), vehicle: saline with Tween-80 111 % of control
